Reference: patent US4087328A, “Purification and immobilization of sulfhydryl oxidase” (Research Triangle Institute, priority 1975, dated 1978)

System: sulfhydryl oxidase
Assay: Effect of metal ions and EDTA on sulfhydryl oxidase activity
Type: biochemical, bovine
Method: In the second method of assay, the rate of O2 consumption was measured with an oscillating platinum electrode using a Gilson model K Oxygraph. In a typical assay, 0.2 ml of enzyme solution was added to 1.5 ml of 0.8 mM GSH which had been equilibrated at 35° in the electrode cell. […] Enzymic reaction rates were calculated from the initial slopes obtained.
Assays were performed in phosphate at pH 7.0 and 35° using 0.8 mM GSH as substrate. An aliquot of the stock enzyme solution was removed and assayed in the presence of 1.0 mM EDTA. […] Controls were prepared using boiled enzyme and also using the dialysate containing the metal ion. In both cases, significant O2 consumption was not observed.

[1] = EDTA-treated enzyme dialyzed against 1.0 mM solution of the metal ion, phosphate pH 7.0, 35°, 0.8 mM GSH

Compound | Enzyme activity [1] [μmol O2 consumed/min.] | further results
[Cl][Co][Cl] [Cobalt chloride] | 0.021 | 
O=C(O)CN(CCN(CC(=O)O)CC(=O)O)CC(=O)O [EDTA] |  | Effect of EDTA treatment on enzyme activity: complete loss of activity; Enzyme activity (pH 7): 0.012 μmol O2 consumed/min.
[Cl][Mn][Cl] [Manganese (II) chloride] | 0.085 | 

Now from value to compound, other results behind:

Enzyme activity [1] [μmol O2 consumed/min.] | Compound | further results
0.029 | O=S(=O)([O-])[O-].[Zn+2] [Zinc sulfate] | 
0.008 | [Br][Mo][Br] [Molybdenum dibromide, molybdenum dibromide] | 
0.256 | Ferrous sulfate | Restoration of activity after EDTA treatment (dialysis against 1 μM ferrous sulfate): restored
0.109 | O=S(=O)([O-])[O-].[Cu+2] [Copper sulfate] | 
